Laboratory results published in patent US6737383B1, “Herbicidal oxadiazolidines” (priority 1999, dated 2004).

Assays:
wild oat = assay: Test B pre/postemergence wild oat; format: in vivo, Avena fatua; conditions: for Plant response rating, Wild oats: Rate 250 g/ha
Method in brief: (§1)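 Response is a visual 0-to-10 score relative to untreated plants, where 0 means no effect and 10 means complete control, taken twelve to sixteen days after application. Treatments went onto soil at planting and onto foliage of 1- to 4-leaf plants, using a surfactant-containing non-phytotoxic solvent.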

wheat = assay: Test B pre/postemergence wheat; format: in vivo, Triticum aestivum; conditions: for Plant response rating, Wheat: Rate 250 g/ha
Method in brief: as §1

purple nutsedge = assay: Test B pre/postemergence purple nutsedge; format: in vivo, Cyperus rotundus
Method in brief: as §1

giant foxtail = assay: Test B pre/postemergence giant foxtail; format: in vivo, Setaria faberii
Method in brief: as §1

pigweed = assay: Test B pre/postemergence pigweed; format: in vivo, Amaranthus retroflexus
Method in brief: as §1

soybean = assay: Test B pre/postemergence soybean; format: in vivo, Glycine max
Method in brief: as §1

morningglory = assay: Test B pre/postemergence morningglory; format: in vivo, Ipomoea hederacea
Method in brief: as §1

velvetleaf = assay: Test B pre/postemergence velvetleaf; format: in vivo, Abutilon theophrasti; conditions: for Plant response rating, Velvetleaf: Rate 250 g/ha
Method in brief: as §1

sugar beet = assay: Test B pre/postemergence sugar beet; format: in vivo, Beta vulgaris; conditions: for Plant response rating, Sugarbeets: Rate 250 g/ha
Method in brief: as §1

crabgrass = assay: Test B pre/postemergence crabgrass; format: in vivo, Digitaria sanguinalis
Method in brief: as §1

rape = assay: Test B pre/postemergence rape; format: in vivo, Brassica napus
Method in brief: as §1

rice = assay: Test B flood test rice; format: in vivo, Oryza sativa
Method in brief: (§2)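 Each value is a visual injury score relative to controls, with 10 meaning complete control and 0 no effect. Evaluation took place twelve to sixteen days after the 2-leaf-stage plants were treated and kept in the greenhouse.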

corn = assay: Test B pre/postemergence corn; format: in vivo, Zea mays
Method in brief: as §1

cocklebur = assay: Test B pre/postemergence cocklebur; format: in vivo, Xanthium strumarium
Method in brief: as §1

duck salad = assay: Test B flood test duck salad; format: in vivo, Heteranthera limosa
Method in brief: as §2

bamyardgrass = assay: Test B flood test barnyardgrass; format: in vivo, Echinochloa crus-galli
Method in brief: as §2

[1] = Postemergence, Rate 125 g/ha, scale of 0 to 10 where 0 is no effect and 10 is complete control
[2] = Preemergence, Rate 62 g/ha, scale 0 to 10 (0 no effect, 10 complete control)
[3] = Preemergence, Rate 125 g/ha, 0 is no effect, 10 is complete control
[4] = Preemergence, scale of 0 to 10 where 0 is no effect and 10 is complete control
[5] = Preemergence, Rate 500 g/ha, scale 0 to 10 (0 no effect, 10 complete control)
[6] = Rate 62 g/ha, Postemergence, scale of 0 to 10 where 0 is no effect and 10 is complete control
[7] = Postemergence, scale 0 to 10, 0 is no effect, 10 is complete control
[8] = Rate 500 g/ha, Postemergence, scale 0 to 10, 0 no effect, 10 complete control
[9] = Postemergence, Rate 250 g/ha, scale 0 to 10, 0 no effect, 10 complete control
[10] = Preemergence, Rate 125 g/ha, scale 0 to 10 (0 no effect, 10 complete control)
[11] = Preemergence, Rate 250 g/ha, scale of 0 to 10 where 0 is no effect and 10 is complete control
[12] = Rate 250 g/ha, Postemergence, scale 0 to 10, 0 is no effect, 10 is complete control
[13] = Rate 250 g/ha, headed Pre-emergence (flood test species), scale 0 to 10 (0 no effect, 10 complete control)
[14] = Rate 500 g/ha, headed Pre-emergence (flood test species), scale 0 to 10 (0 no effect, 10 complete control)
[15] = Rate 1000 g/ha, Pre-emergence (as headed), scale 0 to 10
[16] = Rate 2000 g/ha, Pre-emergence (as headed), scale 0 to 10

Compound: CCn1c(=O)on(C(=O)N(c2ccc(F)cc2)C(C)C)c1=O [Compound 107]
- Wild oats plant response rating (wild oat; [1]): 3
- Wild oats plant response rating (wild oat; [2]): 9
- Wild oats plant response rating (0 to 10 scale) (wild oat; [3]): 9
- Plant response rating, Wild oats (wild oat; [4]): 10
- Wild oats plant response rating (wild oat; [5]): 10
- Wild oats plant response rating (wild oat; [6]): 0
- Plant response rating, Wild oats (wild oat; [7]): 5
- Wild oats plant response rating (wild oat; [8]): 9
- Wheat plant response rating (wheat; [1]): 5
- Wheat plant response rating (wheat; [2]): 0
- Wheat plant response rating (0 to 10 scale) (wheat; [3]): 5
- Plant response rating, Wheat (wheat; [4]): 7
- Wheat plant response rating (wheat; [5]): 8
- Wheat plant response rating (wheat; [6]): 2
- Plant response rating, Wheat (wheat; [7]): 7
- Wheat plant response rating (wheat; [8]): 8
- Nutsedge plant response rating (purple nutsedge; [1]): 3
- Nutsedge plant response rating (purple nutsedge; [9]): 5
- Nutsedge plant response rating (purple nutsedge; [2]): 0
- Plant response rating, Nutsedge (purple nutsedge; [10]): 0
- Plant response rating, Nutsedge (purple nutsedge; [11]): 2
- Nutsedge plant response rating (purple nutsedge; [5]): 6
- Nutsedge plant response rating (purple nutsedge; [6]): 3
- Nutsedge plant response rating (purple nutsedge; [8]): 6
- Giant foxtail plant response rating (giant foxtail; [1]): 8
- Giant foxtail plant response rating (giant foxtail; [9]): 8
- Giant foxtail plant response rating (giant foxtail; [2]): 10
- Plant response rating, Giant foxtail (giant foxtail; [10]): 10
- Plant response rating, Giant foxtail (giant foxtail; [11]): 10
- Giant foxtail plant response rating (giant foxtail; [5]): 10
- Giant foxtail plant response rating (giant foxtail; [6]): 8
- Giant foxtail plant response rating (giant foxtail; [8]): 8
- Redroot pigweed plant response rating (pigweed; [1]): 0
- Redroot pigweed plant response rating (pigweed; [2]): 10
- Plant response rating, Redroot pigweed (pigweed; [10]): 10
- Plant response rating, Redroot pigweed (pigweed; [11]): 10
- Redroot pigweed plant response rating (pigweed; [5]): 10
- Redroot pigweed plant response rating (pigweed; [6]): 0
- Plant response rating, Redroot pigweed (pigweed; [12]): 5
- Redroot pigweed plant response rating (pigweed; [8]): 8
- Soybean plant response rating (soybean; [1]): 4
- Soybean plant response rating (soybean; [2]): 0
- Plant response rating, Soybean (soybean; [10]): 3
- Plant response rating, Soybean (soybean; [11]): 5
- Soybean plant response rating (soybean; [5]): 8
- Soybean plant response rating (soybean; [6]): 3
- Plant response rating, Soybean (soybean; [12]): 4
- Soybean plant response rating (soybean; [8]): 5
- Morningglory plant response rating (morningglory; [1]): 3
- Morningglory plant response rating (morningglory; [9]): 3
- Morningglory plant response rating (morningglory; [2]): 0
- Plant response rating, Morningglory (morningglory; [10]): 0
- Plant response rating, Morningglory (morningglory; [11]): 2
- Morningglory plant response rating (morningglory; [5]): 7
- Morningglory plant response rating (morningglory; [6]): 3
- Morningglory plant response rating (morningglory; [8]): 3
- Velvetleaf plant response rating (velvetleaf; [1]): 5
- Velvetleaf plant response rating (velvetleaf; [2]): 7
- Velvetleaf plant response rating (0 to 10 scale) (velvetleaf; [3]): 10
- Plant response rating, Velvetleaf (velvetleaf; [4]): 10
- Velvetleaf plant response rating (velvetleaf; [5]): 10
- Velvetleaf plant response rating (velvetleaf; [6]): 4
- Plant response rating, Velvetleaf (velvetleaf; [7]): 5
- Velvetleaf plant response rating (velvetleaf; [8]): 7
- Sugarbeets plant response rating (sugar beet; [1]): 2
- Sugarbeets plant response rating (sugar beet; [2]): 4
- Sugarbeets plant response rating (0 to 10 scale) (sugar beet; [3]): 7
- Plant response rating, Sugarbeets (sugar beet; [4]): 10
- Sugarbeets plant response rating (sugar beet; [5]): 10
- Sugarbeets plant response rating (sugar beet; [6]): 0
- Plant response rating, Sugarbeets (sugar beet; [7]): 5
- Sugarbeets plant response rating (sugar beet; [8]): 7
- Crabgrass plant response rating (crabgrass; [1]): 8
- Crabgrass plant response rating (crabgrass; [9]): 9
- Crabgrass plant response rating (crabgrass; [2]): 10
- Plant response rating, Crabgrass (crabgrass; [10]): 10
- Plant response rating, Crabgrass (crabgrass; [11]): 10
- Crabgrass plant response rating (crabgrass; [5]): 10
- Crabgrass plant response rating (crabgrass; [6]): 8
- Crabgrass plant response rating (crabgrass; [8]): 9
- Rape plant response rating (rape; [1]): 2
- Rape plant response rating (rape; [9]): 3
- Rape plant response rating (rape; [2]): 3
- Plant response rating, Rape (rape; [10]): 8
- Plant response rating, Rape (rape; [11]): 9
- Rape plant response rating (rape; [5]): 10
- Rape plant response rating (rape; [6]): 0
- Rape plant response rating (rape; [8]): 8
- Rice plant response rating (rice; [13]): 0
- Plant response rating, Rice (rice; [14]): 0
- Rice plant response rating (rice; [15]): 0
- Rice plant response rating (rice; [16]): 0
- Corn plant response rating (corn; [1]): 2
- Corn plant response rating (corn; [9]): 5
- Corn plant response rating (corn; [2]): 4
- Plant response rating, Corn (corn; [10]): 7
- Plant response rating, Corn (corn; [11]): 9
- Corn plant response rating (corn; [5]): 9
- Corn plant response rating (corn; [6]): 2
- Corn plant response rating (corn; [8]): 6
- Cocklebur plant response rating (cocklebur; [1]): 0
- Cocklebur plant response rating (cocklebur; [9]): 1
- Cocklebur plant response rating (cocklebur; [2]): 0
- Plant response rating, Cocklebur (cocklebur; [10]): 0
- Plant response rating, Cocklebur (cocklebur; [11]): 0
- Cocklebur plant response rating (cocklebur; [5]): 0
- Cocklebur plant response rating (cocklebur; [6]): 0
- Cocklebur plant response rating (cocklebur; [8]): 3
- Ducksalad plant response rating (duck salad; [13]): 0
- Plant response rating, Ducksalad (duck salad; [14]): 0
- Ducksalad plant response rating (duck salad; [15]): 0
- Ducksalad plant response rating (duck salad; [16]): 0
- Barnyardgrass plant response rating (bamyardgrass; [13]): 0
- Plant response rating, Barnyardgrass (bamyardgrass; [14]): 0
- Barnyardgrass plant response rating (bamyardgrass; [15]): 0
- Barnyardgrass plant response rating (bamyardgrass; Rate 2000 g/ha, Pre-emergence (as headed), scale 0 to 10, 0 no effect, 10 complete control): 0
